Results: ChEMBL document CHEMBL1201862, “PubChem BioAssay data set” (2004)
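Test compounds were applied to cells in 96-well plates for 48 hours at 5 doses. GI50: concentration for 50% inhibition of growth.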 Calls of active or inactive are those of the source. Rule as the data show it: active = GI50 up to about 1.1 µM and inactive = higher.

How the values were obtained:
Test in all cases: DTP human tumour cell line panel, 48 h
SK-MEL-28 = tested on: SK-MEL-28
RXF 393 = tested on: RXF 393
PC-3 = tested on: PC-3
SK-MEL-5 = tested on: SK-MEL-5
U-251 = tested on: U-251
IGROV-1 = tested on: IGROV-1
MDA-MB-435 = tested on: MDA-MB-435
SNB-19 = tested on: SNB-19
UO-31 = tested on: UO-31
HCT-15 = tested on: HCT-15
NCI-H226 = tested on: NCI-H226
Malme-3M = tested on: Malme-3M
SF-539 = tested on: SF-539
SNB-75 = tested on: SNB-75
OVCAR-4 = tested on: OVCAR-4
786-0 = tested on: 786-0
ACHN = tested on: ACHN
COLO 205 = tested on: COLO 205
UACC-62 = tested on: UACC-62
SK-OV-3 = tested on: SK-OV-3

SMILES	GI50 (SK-MEL-28)	GI50 (RXF 393)	GI50 (PC-3)	GI50 (SK-MEL-5)	GI50 (U-251)	GI50 (IGROV-1)	GI50 (MDA-MB-435)	GI50 (SNB-19)	GI50 (UO-31)	GI50 (HCT-15)	GI50 (NCI-H226)	GI50 (Malme-3M)	GI50 (SF-539)	GI50 (SNB-75)	GI50 (OVCAR-4)	GI50 (786-0)	GI50 (ACHN)	GI50 (COLO 205)	GI50 (UACC-62)	GI50 (SK-OV-3)
COc1ccc(C2C(C=O)C(N3CCN(C)CC3)=Nc3nc4ccccc4n32)cc1 (stereo not drawn)	17 µM (inactive)	13.6 µM (inactive)	16.3 µM (inactive)	15.9 µM (inactive)	17.7 µM (inactive)	16.3 µM (inactive)	15.5 µM (inactive)	15.3 µM (inactive)	14.4 µM (inactive)	17.8 µM	16.7 µM (inactive)	10.8 µM (inactive)	22.1 µM (inactive)	11.8 µM (inactive)	8.18 µM (inactive)	20 µM (inactive)	18.2 µM (inactive)	16.8 µM (inactive)	14.1 µM (inactive)	
CC[C@@H](C)[C@H]([C@H](CC(=O)N1CCC[C@@H]1[C@@H](OC)[C@H](C)C(=O)N[C@H](Cc1ccccc1)c1nccs1)OC)N(C)C(=O)[C@H](NC(=O)[C@@H](C(C)C)N(C)C)C(C)C	0.00069 µM (active)	0.000191 µM (active)	< 0.01 µM (active)	2.51e-05 µM (active)	0.000249 µM (active)	0.000681 µM (active)	< 0.01 µM (active)	0.000267 µM (active)	0.00206 µM (active)	0.000366 µM	0.000153 µM (active)	0.000624 µM (active)	0.000168 µM (active)	0.000161 µM (active)	0.000745 µM (active)	0.000184 µM (active)	0.000439 µM (active)	7.13e-05 µM (active)	0.000175 µM (active)	
N#CCc1nc(Cc2ccccc2)n[nH]1	> 100 µM (inactive)	> 100 µM (inactive)	> 100 µM (inactive)	> 100 µM (inactive)	> 100 µM (inactive)	> 100 µM (inactive)	> 100 µM (inactive)	> 100 µM (inactive)	> 100 µM (inactive)	> 100 µM		> 100 µM (inactive)	> 100 µM (inactive)	> 100 µM (inactive)	> 100 µM (inactive)	> 100 µM (inactive)	> 100 µM (inactive)	> 100 µM (inactive)	> 100 µM (inactive)	> 100 µM (inactive)
CC(=O)OCC1OC(N2C(C)=C(C(C)=O)C(c3ccc(Cl)cc3)C(C#N)=C2S)C(OC(C)=O)C(OC(C)=O)C1OC(C)=O (stereo not drawn)	47.1 µM (inactive)	52.8 µM (inactive)	36 µM (inactive)	32.3 µM (inactive)	66.5 µM (inactive)	57.5 µM (inactive)	36.8 µM (inactive)	> 100 µM (inactive)	36.8 µM (inactive)	41.3 µM	44.1 µM (inactive)	48.4 µM (inactive)	44.1 µM (inactive)	27.9 µM (inactive)	51.6 µM (inactive)	35.6 µM (inactive)	77.8 µM (inactive)	19.4 µM (inactive)	19.9 µM (inactive)	
O=C1c2ccc3cc(CCl)cc(O)c3c2C(=O)c2cccc(O)c21	1.77 µM (inactive)	2.55 µM (inactive)	1.81 µM (inactive)	0.604 µM (active)	2.72 µM (inactive)	> 10 µM (inactive)	0.179 µM (active)	4.58 µM (inactive)		1.1 µM	2.7 µM (inactive)	0.0151 µM (active)	2.39 µM (inactive)		2.67 µM (inactive)	2.07 µM (inactive)	2.91 µM (inactive)	1.95 µM (inactive)	1.22 µM (inactive)	> 10 µM (inactive)
CSc1c(C(=O)Nc2ccc(C)cc2)c(N)nn1-c1ccccc1	55.1 µM (inactive)	26.4 µM (inactive)	39.5 µM (inactive)	> 100 µM (inactive)	28.3 µM (inactive)	36.1 µM (inactive)	> 100 µM (inactive)	26.7 µM (inactive)	> 100 µM (inactive)	> 100 µM	> 100 µM (inactive)	19.9 µM (inactive)	35.8 µM (inactive)		13 µM (inactive)	19.9 µM (inactive)	43.8 µM (inactive)	> 100 µM (inactive)	95.9 µM (inactive)	64.6 µM (inactive)
